According to publication PMC3265250 (Chemotherapy Research and Practice, 2011):
In brackets after ≈: the same amount, converted by molar mass. Where two headings read alike, the source gives them in different places. Positions of bridges follow the written chain, without caps; N, C: chain ends. Residues, ends and D or L forms follow the SMILES beside them. No end group written: not given here.

Experiments:
[1] = test system: Superantigen negative S. aureus (10); conditions: for MIC 50% / MIC 90% / MIC Range: microbroth dilution, MHB II, 5 × 10^5 CFU/mL, 18 h at 37°C
[2] = test system: Superantigen positive S. aureus (14); conditions: for MIC 50% / MIC 90% / MIC Range: microbroth dilution, MHB II, 5 × 10^5 CFU/mL, 18 h at 37°C
clinical isolates of SA = conditions: 18 h
S. aureus ATCC 6538P = experiment: MIC, microbroth dilution, referential strain ATCC 6538P; format: cell-based, Staphylococcus aureus
Protocol: (§1) A total number of 24 SA strains were obtained from patients with erythrodermia and 3 reference SA ones from the American Type Culture Collection: 6538P ATCC, 9144 ATCC, and 25923 ATCC (Institute of Experimental Therapy, Wroclaw, Poland). […] Polypropylene 96-well plates (Sigma-Aldrich) were incubated for 18 h at 37°C. MIC was taken as the lowest drug concentration at which a noticeable growth was inhibited. […] The experiments were performed in triplicate.

S. aureus ATCC 9144 = experiment: MIC, microbroth dilution, referential strain ATCC 9144; format: cell-based, Staphylococcus aureus
S. aureus ATCC 25923 = experiment: MIC, microbroth dilution, referential strain ATCC 25923; format: cell-based, Staphylococcus aureus
Protocol: as §1

[3] = test system: Superantigen negative S. aureus (10); experiment: microbe, parasite or virus in culture; conditions: Staphylococcus aureus; for MIC50 / MIC90 / MIC: 18 h; for MIC: read-out: MIC Range
[4] = test system: Superantigen positive S. aureus (14); experiment: microbe, parasite or virus in culture; conditions: Staphylococcus aureus; for MIC50 / MIC90 / MIC: 18 h; for MIC: read-out: MIC Range
[5] = superantigen negative clinical isolates (10), more than 99.9% reduction of the initial inoculums, triplicate
[6] = superantigen positive clinical isolates (14), more than 99.9% reduction of the initial inoculums, triplicate
[7] = ATCC 6538P, microbroth dilution, MHB II, 5 × 10^5 CFU/mL, 18 h at 37°C, triplicate
[8] = ATCC 9144, microbroth dilution, MHB II, 5 × 10^5 CFU/mL, 18 h at 37°C, triplicate
[9] = ATCC 25923, microbroth dilution, MHB II, 5 × 10^5 CFU/mL, 18 h at 37°C, triplicate
[10] = superantigen negative clinical isolates (10), triplicate
[11] = superantigen positive clinical isolates (14), triplicate

Molecule: CC[C@H](C)[C@@H]1NC(=O)CNC(=O)[C@H](CCCNC(=N)N)NC(=O)[C@H](Cc2ccc(O)cc2)NC(=O)[C@@H]2CSSC[C@H](NC1=O)C(=O)N[C@@H](Cc1ccc(O)cc1)C(=O)N[C@@H](CCCNC(=N)N)C(=O)N[C@@H](CCCCN)C(=O)N[C@H](C(=O)N[C@@H](CCCNC(=N)N)C(N)=O)CSSC[C@H](NC(=O)[C@H](Cc1c[nH]c3ccccc13)NC(=O)[C@@H](N)CCCCN)C(=O)N[C@@H](Cc1ccccc1)C(=O)N[C@@H](CCCNC(=N)N)C(=O)N[C@@H](C(C)C)C(=O)N2 [Tachyplesin 3, tachyplesin 3] (H-KWCFRVCYRGICYRKCR-NH2; disulfide 3-16, 7-12 (inferred); N-terminus and C-terminus assumed)
- MBC 50% [1]: 2 µg/mL (≈ 0.895 µM)
- MBC 90% [1]: 4 µg/mL (≈ 1.79 µM)
- MBC 50% [2]: 2 µg/mL (≈ 0.895 µM)
- MBC 90% [2]: 4 µg/mL (≈ 1.79 µM)
- MIC values (range) (clinical isolates of SA): 1 to 8 µg/mL

Molecule: CN(C)c1cc(NC(=O)CNC(C)(C)C)c(O)c2c1C[C@H]1C[C@H]3[C@H](N(C)C)C(O)=C(C(N)=O)C(=O)[C@@]3(O)C(O)=C1C2=O [Tigecycline, tigecycline]
- MIC (S. aureus ATCC 6538P; Staphylococcus aureus, ATCC6538P, ATCC 6538P, microbroth dilution, MHB II, 5 × 10^5 CFU/mL, 18 h at 37°C, triplicate, read-out: MIC): 0.25 µg/mL (≈ 0.427 µM)
- MIC (S. aureus ATCC 9144; Staphylococcus aureus, ATCC9144, ATCC 9144, microbroth dilution, MHB II, 5 × 10^5 CFU/mL, 18 h at 37°C, triplicate, read-out: MIC): 0.25 µg/mL (≈ 0.427 µM)
- MIC (S. aureus ATCC 25923; Staphylococcus aureus, ATCC25923, ATCC 25923, microbroth dilution, MHB II, 5 × 10^5 CFU/mL, 18 h at 37°C, triplicate, read-out: MIC): 0.25 µg/mL (≈ 0.427 µM)
- MBC Range [1, 5]: 1 to 2 µg/mL
- MBC Range [2, 6]: 1 to 2 µg/mL
- MIC50 [3]: 0.5 µg/mL (≈ 0.854 µM)
- MIC90 [3]: 0.5 µg/mL (≈ 0.854 µM)
- MIC [3]: 0.5 to 1 µg/mL (≈ 0.854 to 1.71 µM)
- MIC90 ([3]; read-out: MICs 90%): 0.5 µg/mL (≈ 0.854 µM)
- MBC ([3]; read-out: MBC 50%): 1 µg/mL (≈ 1.71 µM)
- MBC ([3]; read-out: MBC 90%): 1 µg/mL (≈ 1.71 µM)
- MIC50 [4]: 0.5 µg/mL (≈ 0.854 µM)
- MIC90 [4]: 0.5 µg/mL (≈ 0.854 µM)
- MIC [4]: 0.5 to 1 µg/mL (≈ 0.854 to 1.71 µM)
- MIC90 ([4]; read-out: MICs 90%): 0.5 µg/mL (≈ 0.854 µM)
- MBC ([4]; read-out: MBC 50%): 1 µg/mL (≈ 1.71 µM)
- MBC ([4]; read-out: MBC 90%): 1 µg/mL (≈ 1.71 µM)

Molecule: CN[C@H](CC(C)C)C(=O)N[C@H]1C(=O)N[C@@H](CC(N)=O)C(=O)N[C@H]2C(=O)N[C@H]3C(=O)N[C@H](C(=O)N[C@H](C(=O)O)c4cc(O)cc(O)c4-c4cc3ccc4O)[C@H](O)c3ccc(c(Cl)c3)Oc3cc2cc(c3O[C@@H]2O[C@H](CO)[C@@H](O)[C@H](O)[C@H]2O[C@H]2C[C@](C)(N)[C@H](O)[C@H](C)O2)Oc2ccc(cc2Cl)[C@H]1O [Vancomycin, vancomycin]
- MIC (S. aureus ATCC 6538P; Staphylococcus aureus, ATCC6538P, 18 h): 1 µg/mL (≈ 0.69 µM)
- MIC (S. aureus ATCC 9144; Staphylococcus aureus, ATCC9144, 18 h): 2 µg/mL (≈ 1.38 µM)
- MIC (S. aureus ATCC 25923; Staphylococcus aureus, ATCC25923, 18 h): 1 µg/mL (≈ 0.69 µM)
- MBC Range [1]: 1 to 4 µg/mL
- MBC Range [2]: 1 to 4 µg/mL
- MIC50 [3]: 1 µg/mL (≈ 0.69 µM)
- MIC90 [3]: 1 µg/mL (≈ 0.69 µM)
- MIC [3]: 0.5 to 1 µg/mL (≈ 0.345 to 0.69 µM)
- MIC90 ([3]; read-out: MICs 90%): 1 µg/mL (≈ 0.69 µM)
- MBC ([3]; read-out: MBC 50%): 1 µg/mL (≈ 0.69 µM)
- MBC ([3]; read-out: MBC 90%): 2 µg/mL (≈ 1.38 µM)
- MIC50 [4]: 1 µg/mL (≈ 0.69 µM)
- MIC90 [4]: 2 µg/mL (≈ 1.38 µM)
- MIC [4]: 0.5 to 2 µg/mL (≈ 0.345 to 1.38 µM)
- MIC90 ([4]; read-out: MICs 90%): 2 µg/mL (≈ 1.38 µM)
- MBC ([4]; read-out: MBC 50%): 2 µg/mL (≈ 1.38 µM)
- MBC ([4]; read-out: MBC 90%): 4 µg/mL (≈ 2.76 µM)

Molecule: FLPLIGRVLSGIL-NH2 (C-terminus assumed) [Temporin A, temporin A]
- MIC (S. aureus ATCC 6538P; [7]): 8 µg/mL
- MIC (S. aureus ATCC 9144; [8]): 16 µg/mL
- MIC (S. aureus ATCC 25923; [9]): 16 µg/mL
- MBC 50% [1]: 16 µg/mL
- MBC 90% [1]: 32 µg/mL
- MIC 50% [1, 10]: 8 µg/mL
- MIC 90% [1, 10]: 16 µg/mL
- MIC Range [1, 10]: 8 to 32 µg/mL
- MBC Range [1, 5]: 16 to 64 µg/mL
- MBC 50% [2]: 32 µg/mL
- MBC 90% [2]: 64 µg/mL
- MIC 50% [2, 11]: 8 µg/mL
- MIC 90% [2, 11]: 16 µg/mL
- MIC Range [2, 11]: 8 to 32 µg/mL
- MBC Range [2, 6]: 16 to 64 µg/mL

Molecule: GLFDIIKKIAESF-NH2 (C-terminus assumed) [Aurein 1.2, aurein 1.2]
- MIC (S. aureus ATCC 6538P; [7]): 64 µg/mL
- MIC (S. aureus ATCC 9144; [8]): 64 µg/mL
- MIC (S. aureus ATCC 25923; [9]): 64 µg/mL
- MBC 50% [1]: 64 µg/mL
- MBC 90% [1]: 128 µg/mL
- MIC 50% [1, 10]: 64 µg/mL
- MIC 90% [1, 10]: 128 µg/mL
- MIC Range [1, 10]: 32 to 128 µg/mL
- MBC Range [1, 5]: 64 to 128 µg/mL
- MBC 50% [2]: 64 µg/mL
- MBC 90% [2]: 128 µg/mL
- MIC 50% [2, 11]: 64 µg/mL
- MIC 90% [2, 11]: 128 µg/mL
- MIC Range [2, 11]: 32 to 128 µg/mL
- MBC Range [2, 6]: 64 to 128 µg/mL

Molecule: GLFDVIKKVASVIGGL-NH2 (C-terminus assumed) [Citropin 1.1, citropin 1.1]
- MIC (S. aureus ATCC 6538P; [7]): 8 µg/mL
- MIC (S. aureus ATCC 9144; [8]): 32 µg/mL
- MIC (S. aureus ATCC 25923; [9]): 32 µg/mL
- MBC 50% [1]: 16 µg/mL
- MBC 90% [1]: 64 µg/mL
- MIC 50% [1, 10]: 16 µg/mL
- MIC 90% [1, 10]: 32 µg/mL
- MIC Range [1, 10]: 8 to 32 µg/mL
- MBC Range [1, 5]: 16 to 64 µg/mL
- MBC 50% [2]: 16 µg/mL
- MBC 90% [2]: 64 µg/mL
- MIC 50% [2, 11]: 16 µg/mL
- MIC 90% [2, 11]: 32 µg/mL
- MIC Range [2, 11]: 8 to 32 µg/mL
- MBC Range [2, 6]: 16 to 64 µg/mL

Molecule: GVIDAAKKVVNVLKNLF-NH2 (C-terminus assumed) [Uperin 3.6, uperin 3.6]
- MBC 50% [1]: 128 µg/mL
- MBC 90% [1]: 128 µg/mL
- MBC 50% [2]: 128 µg/mL
- MBC 90% [2]: 128 µg/mL
